According to US12338256B2, “Aza-tetracyclic oxazepine compounds and uses thereof” (Genentech, Inc., priority 2022, dated 2025):

Assays:
Type in all cases: cell-based
[1] = tested on: AsPC-1 (homozygous mutant KRAS G12D human pancreatic cell line); assay: KRAS 3D-Cell Proliferation Assay, AsPC-1 (Example 503); conditions: Homo sapiens, ASPC1, 168 h, AsPC-1 3D culture, 7 days, CellTiter-Glo 3D; read-out: Prolif AsPC-1 3D ATP IC50
Method: Example 503: KRAS 3D-Cell Proliferation Assays. Cellular potencies of compounds are assessed by evaluating inhibition of proliferation in 3D cultures of homozygous mutant KRAS G12D human pancreatic cell lines (AsPC-1 and HPAC) as compared to a KRAS wild type human lung adenocarcinoma cell line (PC-9 and/or H1975). Cells are seeded into 384-well black round-bottom, ultra-low attachment assay plates in 50 uL cell growth medium (RPMI-1640 with 10% fetal bovine serum and 2 mM L-glutamine). After overnight incubation at 37° C. and 5% CO2, compounds solubilized in DMSO are added as dilution series to the wells in a total volume of 150 nL (0.3% DMSO final). The cells are incubated for 7 days at 37° C. and 5% CO2. Cell proliferation is quantitated by addition of 40 uL/well of CellTiter-GloÒ 3D (Promega), and the well contents are mixed 20× at high speed using liquid handling automation workstation (Bravo with 384-well head) and centrifuged at 1500 rpm for 2 minutes to eliminate bubbles. This reagent in combination with mechanical disruption releases the cellular ATP to promote activity in a luciferase-based enzyme/substrate chemiluminescent detection system. After a 30-minute incubation under ambient conditions with shaking and an additional 10 minutes without shaking, the luminescence is read on a plate reader (e.g., EnVision [PerkinElmer]). The results are normalized to percent inhibition based on the following control samples: DMSO (0% inhibition) and 1 μM staurosporine (100% inhibition). The normalized luminescence results are plotted against compound concentration, and the data are fit to a 4-parameter Hill equation to determine the IC50 values.

[2] = tested on: HPAC (homozygous mutant KRAS G12D human pancreatic cell line); assay: KRAS 3D-Cell Proliferation Assay, HPAC (Example 503); conditions: Homo sapiens, HPAC, 168 h, HPAC 3D culture, 7 days, CellTiter-Glo 3D; read-out: Prolif HPAC 3D ATP IC50
In short: (§1)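 Cells grown in 3D in ultra-low attachment plates (RPMI-1640 with 10% FBS and 2 mM L-glutamine) received compound dilution series after overnight attachment, at 0.3% DMSO final, for 7 days at 37° C. ATP luminescence (CellTiter-Glo 3D) normalized to DMSO and 1 μM staurosporine; IC50 from 4-parameter Hill fit.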

[3] = tested on: H1975 (KRAS wild type human lung adenocarcinoma cell line); assay: KRAS 3D-Cell Proliferation Assay, H1975 (Example 503); conditions: Homo sapiens, NCI-H1975, 168 h, H1975 3D culture, 7 days, CellTiter-Glo 3D; read-out: Prolif H1975 3D ATP IC50
In short: as §1

Row | Structure (SMILES) | IC50 [1] [nM] | IC50 [2] [nM] | IC50 [3] [nM]
1 | Cc1c(F)c(N)cc(-c2nc3c4c(nc(OCC56C[C@@H](F)CN5C[C@H](F)C6)nc4c2F)N2C[C@H]4CC[C@H](N4)[C@H]2[C@H](C)O3)c1C(F)(F)F [Compound 140, 5-((5S,5aS,6S,9R)-12-(((2R,6R)-2,6-Difluorotetrahydro-1H-pyrrolizin-7a(5H)-yl)methoxy)-1-fluoro-5-methyl-5a,6,7,8,9,10-hexahydro-5H-4-oxa-3,10a,11,13,14-pentaaza-6,9-methanonaphtho[1,8-ab]heptalen-2-yl)-2-fluoro-3-methyl-4-(trifluoromethyl)aniline] | 4.4 | 2.53 | 2060
2 | Cc1cc2[nH]ncc2c(-c2nc3c4c(nc(OC[C@@]56CCCN5C[C@H](F)C6)nc4c2F)N2C[C@H]4CC[C@H](N4)[C@H]2[C@H](C)O3)c1Cl [Compound 176, (5S,5aS,6S,9R)-2-(5-Chloro-6-methyl-1H-indazol-4-yl)-1-fluoro-12-(((2R,7aS)-2-fluorotetrahydro-1H-pyrrolizin-7a(5H)-yl)methoxy)-5-methyl-5a,6,7,8,9,10-hexahydro-5H-4-oxa-3,10a,11,13,14-pentaaza-6,9-methanonaphtho[1,8-ab]heptalene] | 200 | 168 | 15200
3 | Cc1nc(N)cc(-c2nc3c4c(nc(OC[C@@H]5CC[C@H]6COCCN65)nc4c2F)N2C[C@H]4CC[C@H](N4)[C@H]2[C@H](C(F)(F)F)O3)c1C(F)(F)F [Compound 253, 4-((5R,5aS,6S,9R)-1-Fluoro-12-(((6S,8aS)-hexahydro-1H-pyrrolo[2,1-c][1,4]oxazin-6-yl)methoxy)-5-(trifluoromethyl)-5a,6,7,8,9,10-hexahydro-5H-4-oxa-3,10a,11,13,14-pentaaza-6,9-methanonaphtho[1,8-ab]heptalene-2-yl)-6-methyl-5-(trifluoromethyl)pyridin-2-amine] | 64.6 | 19.8 | 5080
4 | Cc1c(F)c(N)cc(-c2nc3c4c(nc(OCC5(CN6CCOCC6)CC5)nc4c2F)N2C[C@H]4CC[C@H](N4)[C@H]2[C@H](C)O3)c1C(F)(F)F [Compound 118, 2-Fluoro-5-((5S,5aS,6S,9R)-1-fluoro-5-methyl-12-((1-(morpholinomethyl)cyclopropyl)methoxy)-5a,6,7,8,9,10-hexahydro-5H-4-oxa-3,10a,11,13,14-pentaaza-6,9-methanonaphtho[1,8-ab]heptalen-2-yl)-3-methyl-4-(trifluoromethyl)aniline] | 0.6 | 0.43 | 519
5 | Cc1c(F)c(N)c(F)c(-c2nc3c4c(nc(OCC5(CN6CCOCC6)CC5)nc4c2F)N2C[C@H]4CC[C@H](N4)[C@H]2[C@H](C)O3)c1C(F)(F)F [Compound 224, 2,6-Difluoro-3-((5S,5aS,6S,9R)-1-fluoro-5-methyl-12-((1-(morpholinomethyl)cyclopropyl)methoxy)-5a,6,7,8,9,10-hexahydro-5H-4-oxa-3,10a,11,13,14-pentaaza-6,9-methanonaphtho[1,8-ab]heptalen-2-yl)-5-methyl-4-(trifluoromethyl)aniline] | 3.5 | 2.72 | 711
6 | Cc1c(F)c(N)cc(-c2nc3c4c(nc(OCC5(CN6CCOCC6)CC5)nc4c2F)N2C[C@H]4CC[C@H](N4)[C@H]2[C@H](C)O3)c1CC(F)F [Compound 156, 4-(2,2-Difluoroethyl)-2-fluoro-5-((5S,5aS,6S,9R)-1-fluoro-5-methyl-12-((1-(morpholinomethyl)cyclopropyl)methoxy)-5a,6,7,8,9,10-hexahydro-5H-4-oxa-3,10a,11,13,14-pentaaza-6,9-methanonaphtho[1,8-ab]heptalen-2-yl)-3-methylaniline] | 9.4 | 2.94 | 776
7 | Cc1nc(N)c(F)c(-c2nc3c4c(nc(OC[C@@]56CCCN5CC5(CC5(F)F)C6)nc4c2F)N2C[C@H]4CC[C@H](N4)[C@H]2[C@H](C(F)(F)F)O3)c1C(F)(F)F (stereo partly drawn) [Compound 257, 4-((5R,5aS,6S,9R)-12-(((7a′S)-2,2-Difluorodihydro-1′H,3′H-spiro[cyclopropane-1,2′-pyrrolizin]-7a′(5′H)-yl)methoxy)-1-fluoro-5-(trifluoromethyl)-5a,6,7,8,9,10-hexahydro-5H-4-oxa-3,10a,11,13,14-pentaaza[6,9]methanonaphtho[1,8-ab]heptalen-2-yl)-3-fluoro-6-methyl-5-(trifluoromethyl)pyridin-2-amine] | 8 | 8.37 | 5020
8 | Cc1c(F)c(N)cc(-c2nc3c4c(nc(OC[C@@]56CCCN5CC5(CC5(F)F)C6)nc4c2F)N2C[C@H]4CC[C@H](N4)[C@H]2[C@H](C)O3)c1C(F)(F)F (stereo partly drawn) [Compound 62, 5-((5S,5aS,6S,9R)-12-(((7a′S)-2,2-Difluorodihydro-1′H,3′H-spiro[cyclopropane-1,2′-pyrrolizin]-7a′(5′H)-yl)methoxy)-1-fluoro-5-methyl-5a,6,7,8,9,10-hexahydro-5H-4-oxa-3,10a,11,13,14-pentaaza[6,9]methanonaphtho[1,8-ab]heptalen-2-yl)-2-fluoro-3-methyl-4-(trifluoromethyl)aniline] | 0.3 | 0.261 | 111
9 | C[C@@H]1Oc2nc(-c3cc(N)c(F)c(Cl)c3C(F)(F)F)c(F)c3nc(OC[C@@]45CCCN4C[C@H](F)C5)nc(c23)N2C[C@H]3CC[C@H](N3)[C@@H]12 [Compound 104, 3-Chloro-2-fluoro-5-((5S,5aS,6S,9R)-1-fluoro-12-(((2R,7aS)-2-fluorotetrahydro-1H-pyrrolizin-7a(5H)-yl)methoxy)-5-methyl-5a,6,7,8,9,10-hexahydro-5H-4-oxa-3,10a,11,13,14-pentaaza-6,9-methanonaphtho[1,8-ab]heptalen-2-yl)-4-(trifluoromethyl)aniline] | 1.4 | 0.65 | 221
10 | Cc1cc(N)c(F)c(-c2nc3c4c(nc(OC[C@@]56CCCN5C[C@H](F)C6)nc4c2F)N2C[C@H]4CC[C@H](N4)[C@H]2[C@H](C)O3)c1CC(F)(F)F [Compound 182, 2-Fluoro-3-((5S,5aS,6S,9R)-1-fluoro-12-(((2R,7aS)-2-fluorotetrahydro-1H-pyrrolizin-7°(5H)-yl)methoxy)-5-methyl-5°,6,7,8,9,10-hexahydro-5H-4-oxa-3,10°,11,13,14-pentaaza-6,9-methanonaphtho[1,8-ab]heptalen-2-yl)-5-methyl-4-(2,2,2-trifluoroethyl)aniline] | 8.3 | 4.12 | 1910
11 | Cc1c(F)c(N)c(F)c(-c2nc3c4c(nc(OC[C@@]56CCCN5CC5(CC5(F)F)C6)nc4c2F)N2C[C@H]4CC[C@H](N4)[C@H]2[C@H](C)O3)c1C(F)(F)F (stereo partly drawn) [Compound 225, 3-((5S,5aS,6S,9R)-12-(((7′S)-2,2-Difluorodihydro-1′H,3′H-spiro[cyclopropane-1,2′-pyrrolizin]-7a′(5′H)-yl)methoxy)-1-fluoro-5-methyl-5a,6,7,8,9,10-hexahydro-5H-4-oxa-3,10a,11,13,14-pentaaza[6,9]methanonaphtho[1,8-ab]heptalene-2-yl)-2,6-difluoro-5-methyl-4-(trifluoromethyl)aniline] | 2.9 | 1.19 | 561
